Columns and labels:
CD4 T cells [1] = experiment: IL-2 ELISPOT of draining lymph node cells after immunization with MalE:insert protein; assay type: in vivo, mouse; settings: mice immunized with MalE protein
lymph node cells = experiment: IL-2 ELISPOT after immunization with peptide (cross reactivity of WT and variant); assay type: in vivo, mouse; settings: mice immunized with WT or variant peptide
sI-A^d [2] = settings: pH 5.3, 37° C., FITC peptide from sI-A^d
[3] = test system: peptide specific T cell hybridomas; experiment: T cell hybridoma assay (IL-2 production, CTLL/MTT); assay type: cell-based, mouse
sI-A^d [4] = experiment: Peptide competition with FITC-HA[126-138] for binding to soluble I-A^d; design: species or system mouse; settings: 1 μM FITC-HA[126-138], 20 nM soluble I-A^d
Protocol: B. The percentage of inhibition of binding of 1 μM N-terminal FITC-HA[126-138] to sI-A^d by the unlabeled competitor peptide was plotted against the concentration of unlabeled inhibitory peptide. Data is represented as a Hill Plot (Hill, J Physiol 40, iv-vii, 1910), and is the average of 2 independent experiments
Soluble I-A^d (20 nM) and 1 μM FITC-HA[126-138] were used for competition assays, which is in the titratable range of peptide and class II molecules. Unlabeled competitor peptides at a final concentrations ranging between 0-500 μM were mixed, and after 16-20 h of incubation at 37° C., the sI-A^d-FITC-HA[126-138] complex was separated from free peptide and quantified as described above. Inhibition by competitor peptides was calculated using the Hill equation ((Hill, J Physiol 40, iv-vii, 1910), with the IC50 value the concentration of unlabeled competitor peptide required to achieve 50% inhibition of the labeled peptide binding to class II molecules.

CD4 T cells [5] = experiment: IL-2 ELISPOT after immunization with OVA protein; assay type: in vivo, mouse; settings: mice immunized with OVA protein
Protocol: Groups of 2 BALB/c mice were immunized in the footpad with (A) 200 μg/mL OVA protein, (B) 200 μg/mL of the indicated MalE protein, or (D and E) 5 nmol of the indicated peptide emulsified in 50 μL PBS:CFA. The number of IL-2 producing cells at day 10 was determined by 16 h in vitro stimulation of CD4 purified cells with syngeneic spleen cells and (A) 200 μg/mL protein or 12.5 μM peptide, (B) 200 μg/mL protein or 5 μM peptide, or (D and E) the indicated amount of peptide and quantified using IL-2 ELISPOT assays with background subtracted. (A and D) Data represents the mean counts of two separate cell dilutions ([…] and 1.25×10^5) of triplicate wells normalized as indicated. […] Data are representative of at least 2 independent experiments.
To provide another example of a cryptic epitope that can gain immunodominance by simply changing its kinetic stability with I-A^d, one of the peptide registers contained within the prototypic I-A^d-restricted peptide OVA [323-339] (Jenkins et al., Annu Rev Immunol 19, 23-45, 2001; Sette et al., J Immunol 142, 35-40, 1988) was studied. Several studies (McFarland et al., Biochemistry 38, 16663-16670, 1999; Robertson et al., J Immunol 164, 4706-4712, 2000) have shown that this long peptide contains several alternative registers, including the most amino terminal segment that was co-crystallized with I-A^d (Scott et al., Immunity 1, 73-83, 1998). […]

sI-A^d, sequence (P04228 24-111 limits assumed): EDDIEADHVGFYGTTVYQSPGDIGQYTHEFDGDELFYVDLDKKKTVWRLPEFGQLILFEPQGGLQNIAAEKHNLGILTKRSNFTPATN
sI-A^d, sequence (P01921 28-122 limits assumed, further chain): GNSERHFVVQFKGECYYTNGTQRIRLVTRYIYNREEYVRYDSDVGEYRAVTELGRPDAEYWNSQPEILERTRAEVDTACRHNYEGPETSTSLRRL

Substance	immunogenicity of peptide within MalE (in words) (CD4 T cells [1])	cross reactivity between WT and variant peptide after peptide immunization (in words) (lymph node cells)	t1/2 (half-life, kinetic stability) of peptide with I-A^d (sI-A^d [2])	stimulation of specific T cell hybridoma by soluble peptide (in words) ([3]; peptide presented by I-A^d expressing cells)	competition with HA [126-138] for binding to I-A^d (in words) (sI-A^d [4])	reactivity of specific T cell hybridoma to peptide inserted into MalE (in words) ([3]; MalE:insert protein, BALB/c spleen as APCs)	percent of T cells raised against OVA that recognize the peptide (CD4 T cells [5])
R14Q, N19A, G22S: HEL [11-25] variant with changes at P1, P6, and P9 (AMKQHGLDAYRSYSL; UniProt P00698 29-43, looked up, variant R14Q N19A G22S)	significant gain in immunogenicity	a significant portion of the T cells elicited were non-reactive with the WT HEL peptide	35 h	–	–	–	–
A332I, I334V: OVA [327-339] variant with substitutions at P4 and P6 (AVHAAHIEVNEAG; UniProt P01012 327-339, looked up, variant A332I I334V)	immunodominant peptide	cross-reacted back onto the WT OVA peptide	greater than 80 h	recognized by the 3DO11.10 T cell hybridoma	–	–	–
AMKRHGLDNYRGYSL [HEL [11-25]]	failure in immunogenicity	–	6 h	–	competed well	gained reactivity	–
HEL R14Q, G22S: HEL [11-25] variant with changes at P1 and P9 (AMKQHGLDNYRSYSL; UniProt P00698 29-43, looked up, variant R14Q G22S)	remained non-immunogenic	–	11 h	–	–	–	–
HEL [20-35]: cryptic epitope of hen-egg lysozyme (YRGYSLGNWVCAAKFE; UniProt P00698 38-53, looked up, fragment)	–	–	4 h	–	competed poorly	–	–
OVA [273-288]: immunodominant I-Ad restricted epitope from chicken ovalbumin (VMEERKIKVYLPRMKM; UniProt P01012 273-288, looked up, fragment)	–	–	160 h	–	–	–	–
OVA [327-339]: carboxyterminal register of OVA [323-339] recognized by the 3DO11.10 T cell (AVHAAHAEINEAG; UniProt P01012 327-339, looked up, fragment)	–	–	0.3 h	–	–	–	Less than 1%

Reference: patent US20090269362A1, “Method for Controlling Immunodominance” (priority 2005, published 2009)
